Data published in patent US20050063931A1, “Hair-follicle treatment,in particular against hair loss” (priority 2001, published 2005).

Tests used:
[1] = system: keratinocytes in the hair follicle; assay: Proliferation of keratinocytes in the hair follicle, positive Ki67 cells (immunohistochemical); format: in vivo, mice of the strain CBA/J; conditions: no stress + SP
Method: (§1) The tests were carried out in vivo on mice of the strain CBA/J which were pregnant since, as is known, there is a close correlation between exposure to stress and an increase in the percentage of abortions. In order to determine the effect of stress on hair growth, the following biological and immunological parameters were measured: • the number of cells in apoptosis in the hair follicle, • the proliferation of keratinocytes in the hair follicle, • the activity of some immunocytes, in particular, of macrophages, mast cells, and γδT cells. In accordance with a well-established model for the study of stress, some mice were subjected to predetermined doses of ultrasound (sonic stress) for 7 days, to ascertain its impact both on the activity of the hair follicle and on the immune response of the perifollicular region. Another group of mice was subjected to treatment with substance P (SP), and yet others to sonic stress treatment combined with the administration of a NK1-receptor antagonist substance (indicated SP-RA). Upon completion of the above-mentioned treatments, the parameters listed above were measured again and compared with those measured in mice which had not been subjected to any treatment. The proliferation of the keratinocytes was measured by an immunohistochemical technique by measurement of the positive Ki67 cells (column 5).

hair follicle [2] = assay: Cells in apoptosis in the hair follicle by TUNEL technique; format: in vivo, mice of the strain CBA/J; conditions: no stress + SP
Method: The tests were carried out in vivo on mice of the strain CBA/J which were pregnant since, as is known, there is a close correlation between exposure to stress and an increase in the percentage of abortions. In order to determine the effect of stress on hair growth, the following biological and immunological parameters were measured: • the number of cells in apoptosis in the hair follicle, • the proliferation of keratinocytes in the hair follicle, • the activity of some immunocytes, in particular, of macrophages, mast cells, and γδT cells. In accordance with a well-established model for the study of stress, some mice were subjected to predetermined doses of ultrasound (sonic stress) for 7 days, to ascertain its impact both on the activity of the hair follicle and on the immune response of the perifollicular region. […] Upon completion of the above-mentioned treatments, the parameters listed above were measured again and compared with those measured in mice which had not been subjected to any treatment. The number of cells in apoptosis was measured by the TUNEL technique in a first region of the hair follicle comprising the infundibulum, the capsular germinal region, and the secondary germinal region (column 3), and in a second, more extensive region comprising, in addition to the first region, the epidermis and the parafollicular dermis (column 4).

[3] = system: perifollicular macrophages; assay: Macrophage presence by expression of Class II MHC glycoprotein; format: in vivo, mice of the strain CBA/J; conditions: no stress + SP
Method: as §1, with “Macrophage presence was investigated by detection” for “The proliferation”, “expression” for “keratinocytes was measured by an immunohistochemical technique by measurement”, “Class II MHC glycoprotein” for “the positive Ki67 cells”, “6).” for “5).”

γδT cells = assay: γδT-cell presence (immunohistochemical); format: in vivo, mice of the strain CBA/J; conditions: no stress + SP
Method: as §1, with “treatment. γδT-cell presence” for “treatment. The proliferation of the keratinocytes”, “was detected” for “was measured”, “technique” for “technique by measurement of the positive Ki67 cells”, “(column 8).” for “(column 5).”

hair follicle [4] = assay: Extent of progress of the hair cycle (HCS) 16 days after epilation, FIG. 1; format: in vivo, mice; conditions: group C, substance P, no stress
Source text: The extent of progress of the cycle in this case was an index of the rate at which the hair follicle progresses from the anagen to the catagen.
With reference to the histogram of FIG. 1, appended to the present description: • the first group of mice (A) underwent no treatment, • the second group (B) was subjected to sonic stress, • the third group (C) was subjected to treatment with substance P, • the fourth group (D) was subjected to treatment with an NK1-receptor antagonist substance, and • the fifth group (E) was subjected to combined stress and NK1-receptor antagonist substance treatment.

mast cells = assay: Mast-cell activity, degranulated mast cells; format: in vivo, mice of the strain CBA/J; conditions: no stress + SP
Method: The tests were carried out in vivo on mice of the strain CBA/J which were pregnant since, as is known, there is a close correlation between exposure to stress and an increase in the percentage of abortions. In order to determine the effect of stress on hair growth, the following biological and immunological parameters were measured: • the number of cells in apoptosis in the hair follicle, • the proliferation of keratinocytes in the hair follicle, • the activity of some immunocytes, in particular, of macrophages, mast cells, and γδT cells. In accordance with a well-established model for the study of stress, some mice were subjected to predetermined doses of ultrasound (sonic stress) for 7 days, to ascertain its impact both on the activity of the hair follicle and on the immune response of the perifollicular region. Another group of mice was subjected to treatment with substance P (SP), and yet others to sonic stress treatment combined with the administration of a NK1-receptor antagonist substance (indicated SP-RA). Upon completion of the above-mentioned treatments, the parameters listed above were measured again and compared with those measured in mice which had not been subjected to any treatment. Mast-cell activity was measured by measuring the percentage of degranulated mast cells relative to the total mast cells present in the field of vision (column 7).

[5] = Abortions in pregnant mice (sonic stress model); format: in vivo, mice of the strain CBA/J; conditions: no stress + SP, pregnant CBA/J mice
Method: The tests were carried out in vivo on mice of the strain CBA/J which were pregnant since, as is known, there is a close correlation between exposure to stress and an increase in the percentage of abortions. In accordance with a well-established model for the study of stress, some mice were subjected to predetermined doses of ultrasound (sonic stress) for 7 days, to ascertain its impact both on the activity of the hair follicle and on the immune response of the perifollicular region. Another group of mice was subjected to treatment with substance P (SP), and yet others to sonic stress treatment combined with the administration of a NK1-receptor antagonist substance (indicated SP-RA). Upon completion of the above-mentioned treatments, the parameters listed above were measured again and compared with those measured in mice which had not been subjected to any treatment.

hair follicle [6] = conditions: treatment during telogen stage; cited from earlier work

With Substance P [SP] as the substance, how does the “Ki67+ cells (proliferation of keratinocytes)” value [1] read?
Its value is 7.7.

What about the “TUNEL+ cells in apoptosis, first region of the hair follicle (infundibulum, capsular germinal region, secondary germinal region)” value (hair follicle [2]) of the same substance?
The value was 8.0.

And the “TUNEL+ cells in apoptosis, second more extensive region (first region plus epidermis and parafollicular dermis)” value (hair follicle [2])?
Its value is 9.0.

And the “MHC II (macrophage presence)” value [3]?
The value was 11.0.

What about the “γδ TCR+ (γδT-cell presence)” value (γδT cells) of the same substance?
Its value is 1.3.

What about the “Extent of progress of the cycle (HCS): premature catagen” value (hair follicle [4]) of the same substance?
The value was “an effect also well simulated by substance P”.

What about the “MC (percentage of degranulated mast cells relative to total mast cells in the field of vision)” value (mast cells) of the same substance?
The value was 7.9.

And the “% Abortions” value [5]?
The value was 19%.

And the “Effect on hair follicle treated during the telogen stage” value (hair follicle [6])?
The value was “induced to go on to the subsequent anagen stage”.
